Source: publication PMC6713104, “New peptide derived antimalaria and antimicrobial agents bearing sulphonamide moiety” (Journal of Enzyme Inhibition and Medicinal Chemistry, 2019)
In brackets after ≈: the same amount, converted by molar mass. Where two headings read alike, the source gives them in different places.

What was measured:
[1] = test system: E. coli; assay: Antimicrobial MIC, agar cup diffusion; format: cell-based; conditions: Escherichia coli, read-out: MIC (minimum inhibitory concentration)
[2] = test system: P. falciparum strain W2; assay: In vitro antimalarial assay; format: cell-based; conditions: for MIC: Plasmodium falciparum, W2, P. falciparum
[3] = test system: K. pneumoniae; assay: Antimicrobial MIC, agar cup diffusion; format: cell-based; conditions: Klebsiella pneumoniae, read-out: MIC (minimum inhibitory concentration)
[4] = test system: B. subtilis; assay: Antimicrobial MIC, agar cup diffusion; format: cell-based; conditions: for MIC: Bacillus subtilis, B. subtilis, read-out: MIC (minimum inhibitory concentration); for activity against Bacillus compared with ciprofloxacin: in words
[5] = test system: A. niger; assay: Antimicrobial MIC, agar cup diffusion; format: cell-based; conditions: Aspergillus niger, read-out: MIC (minimum inhibitory concentration)
[6] = Renal or kidney function test; format: in vivo; conditions: mice, 10 mg/kg
Excerpt: (§1) Twenty-four hours before the injecting the compounds, the blood sample of five mice was taken and it was also taken after the last day of treatment, the animals were sacrificed by cervical dislocation and the blood samples were collected by heart puncture. The blood samples for haematological parameters (red blood cell (RBC) count, white blood cell (WBC) count, packed cell volume (PCV), and hemoglobin (HGB)) were collected into EDTA bottles and analyzed using an automated machine (Automated CBC Analyzer: Sysmex KX-21). Kidney function tests carried out with the blood of the rats fed with the sulfonamide derivatives were, creatinine and albunim. The method reported by Kaplan and Tengv[33] was used in the determination of creatinine.

[7] = test system: C. albicans; assay: Antimicrobial MIC, agar cup diffusion; format: cell-based; conditions: Candida albicans, read-out: MIC (minimum inhibitory concentration)
[8] = Haematological analysis; format: in vivo, mice
Excerpt: as §1, with “KX-21).” for “KX-21). Kidney function tests carried out with the blood of the rats fed with the sulfonamide derivatives were, creatinine and albunim. The method reported by Kaplan and Tengv[33] was used in the determination of creatinine.”
The blood samples for haematological parameters (red blood cell (RBC) count, white blood cell (WBC) count, packed cell volume (PCV), and haemoglobin (HGB)) were collected into EDTA bottles and analyzed using an automated machine (Automated CBC Analyzer: Sysmex KX-21) (Table 8). From the analysis, even though there is a decrease in the value of RBC, PCV and HB, it is observed that there is no significant changes in the parameters that were analyzed for the control and the test compounds.

[9] = test system: S. typhi; assay: Antimicrobial MIC, agar cup diffusion; format: cell-based; conditions: Salmonella enterica, read-out: MIC (minimum inhibitory concentration)
[10] = test system: Plasmodium berghei infection in mice; assay: In vivo antimalaria test; conditions: P. berghei infected mice; for ability to inhibit parasitaemia compared to the control drug: in words; for inhibition in vivo at 100 mg/kg / inhibition in vivo at 200 mg/kg: Plasmodium berghei, oral
Protocol: Experimental Design and Treatment of Mice. Methods of Peter et al.[30] and Kalra et al.[31] for antiplasmodial assay against Plasmodium berghei infection in mice with some modifications were employed. About eighty infected mice were randomly divided into five groups, each having […] mice. The inoculum was prepared from a donor mouse with rising parasitemia of 60.42%. After 7 days of infection, animals begin to receive treatment (100 and 200 mg/kg b wt.) of the synthesized compounds (7a–7n) for 12 days with constant check of the percentage of parasitemia after a 4-day interval. Artemisinin (100 and 200 mg/kg body weight.) was given to the other mice in group three as positive control, group four was not treated and group five was not infected. All the compounds and the drugs were given orally by using a standard intragastric tube. For all parasitemia determination, blood samples were collected from tail snip of each mouse and thin smears prepared and stained with 10% Giemsa solution. The uniform fields of each stained slide (for each mouse) were examined under microscope with an oil immersion objective of 100X magnification power and average percent of parasitemia was determined.
To determine the in vivo activity, the compounds were tested against P. berghei NK(65 Strain) infection mice., the animals were obtained from Nigeria institute for Trypanosoma and onchocercarioses Research (NTIR) Vom, Plateau State Nigeria. The permission and approval for the use of animals in this experiment were granted by the Animal Ethics Committee, Federal College of Vetrenary Medical Laboratory, Vom, Plateau State. Method of Peter et al.[30], for antiplasmodial assay against P. berghei in mice with some modification were employed. Artemisimin was used as treated control of the experiments. The percentage inhibition of parasite multiplication was calculated comparing the treated group with untreated group by means of the following formula[39] [(A − B)/A] × 100; where A = parasitaemia in the untreated group and B = parasitemia in the test group. […] Most of the compounds were active against P. berghei after 7 days post-infection by reducing the parasiteamia by at least 40% when in a dose of 100 mg/kg (Table 5). The inhibition of parasitaemia increased on 12th day post infection for almost all the compounds. […] However in consideration of the compounds ability to inhibit parasitaemia to the control drug. […] These compounds should be considered for further studies because of its promising activities.

[11] = Liver function tests; format: in vivo; set-up: Glucose: unit not given here; conditions: mice, 10 mg/kg
Excerpt: as §1, with “KX-21). The liver” for “KX-21). Kidney”, “derivatives were aspartate aminotransperase (AST), alanine transaminase (ALT)” for “derivatives were, creatinine”, “and alkaline phosphatase (ALP). Standard laboratory procedure according to Reitman” for “and albunim. The method reported by Kaplan”, “and Franke[32]” for “and Tengv[33]”, “used for” for “used in”, “of parameters.” for “of creatinine.”

[12] = 48 h, >99% of parasites inhibited from developing to schizonts
[13] = 168 h, read-out: % inhibition 7 days post-treatment (100 mg/kg), day 7
[14] = 168 h, read-out: % inhibition 7 days post-treatment (200 mg/kg), day 7
[15] = 288 h, read-out: % inhibition 12 days post-treatment (100 mg/kg), day 12
[16] = 288 h, read-out: % inhibition 12 days post-treatment (200 mg/kg), day 12

Compound	MIC [1] [µg/mL]	MIC [2] [µM]	MIC [2, 12] [µM]	MIC [3] [µg/mL]	MIC [4] [µg/mL]	MIC [5] [µg/mL]	Albumin ([6]; After) [g/dL]	Creatinine ([6]; After) [mg/dL]	Albumin ([6]; Before) [g/dL]	Creatinine ([6]; Before) [mg/dL]	MIC [7] [µg/mL]	melting point [°C]	HB ([8]; After treatment) [g/dL]	PCV ([8]; After treatment) [%]	RBC ([8]; After treatment)	MIC [9] [µg/mL]	inhibition in vivo at 100 mg/kg [10, 13] [%]	inhibition in vivo at 200 mg/kg [10, 14] [%]	inhibition in vivo at 100 mg/kg [10, 15] [%]	inhibition in vivo at 200 mg/kg [10, 16] [%]	other results
Cc1ccc(S(=O)(=O)NC(C)C(=O)NCC(=O)Nc2cccc(Cl)c2)cc1 (stereo not drawn) [Compound 7h, N-(2-((3-chlorophenyl)amino)-2-oxoethyl)-2–(4-methylphenylsulfonamido)propanamide]	239 (≈ 583 µM)	50 (≈ 20.5 µg/mL)	0.03 (≈ 0.0123 µg/mL)	5250 (≈ 12800 µM)	214 (≈ 522 µM)	31.6 (≈ 77.1 µM)	3.9	0.3	3.9	0.3	34 (≈ 82.9 µM)	120 to 122	10.0	34	5.9 × 10^6 mm^3	1290 (≈ 3140 µM)	61.4	49.9	57.8	55.2	in vitro antimalarial activity relative to other compounds and standard drugs ([2]; in words): best activity; WBC ([8]; After treatment): 9.3 × 10^3 mm^3; HB ([8]; Before treatment): 13.4 g/dL; PCV ([8]; Before treatment): 39%; RBC ([8]; Before treatment): 7.3 × 10^6 mm^3; WBC ([8]; Before treatment): 9.4 × 10^3 mm^3; ability to inhibit parasitaemia compared to the control drug [10]: almost the same or better activity compared to the artemisinin; ALT ([11]; After): 24.5 µ/L; AST ([11]; After): 69.5 µ/L; Bilirubin ([11]; After): 0.3 mg/dL; Glucose ([11]; After): 5.5; T.P. ([11]; After): 5.5 g/dL; ALT ([11]; Before): 25.4 µ/L; AST ([11]; Before): 65.0 µ/L; Bilirubin ([11]; Before): 0.4 mg/dL; Glucose ([11]; Before): 5.9; T.P. ([11]; Before): 6.0 g/dL
CC(NS(=O)(=O)c1ccccc1)C(=O)NCC(=O)Nc1ccc(Cl)cc1 (stereo not drawn) [Compound 7b]	467 (≈ 1180 µM)		0.87 (≈ 0.344 µg/mL)	1690 (≈ 4270 µM)	129 (≈ 326 µM)	100 (≈ 253 µM)					135 (≈ 341 µM)	140 to 142				602 (≈ 1520 µM)	51.3	57.6	55.2	53.4	activity against Bacillus compared with ciprofloxacin [4]: greater activity against Bacillus than ciprofloxacin
CC(NS(=O)(=O)c1ccccc1)C(=O)NCC(=O)Nc1ccc2ccccc2c1 (stereo not drawn) [Compound 7g, N-(2-(naphthalene-2-ylamino)-2-oxoethyl)-2-(phenylsulfonamido)propanamide]			3.23 (≈ 1.33 µg/mL)	166 (≈ 403 µM)	141 (≈ 343 µM)	158 (≈ 384 µM)					29.7 (≈ 72.2 µM)	170 to 172				79 (≈ 192 µM)	27.5	54.7	36.8	51.9	activity against Bacillus compared with ciprofloxacin [4]: greater activity against Bacillus than ciprofloxacin
Cc1ccc(NC(=O)CNC(=O)C(C)NS(=O)(=O)c2ccc(C)cc2)cc1 (stereo not drawn) [Compound 7l, 2–(4-methylphenylsulfonamido)-N-(2-oxo-2-(p-tolylamino)ethyl)propanamide]	169 (≈ 434 µM)		0.93 (≈ 0.362 µg/mL)	107 (≈ 275 µM)	245 (≈ 629 µM)	123 (≈ 316 µM)					174 (≈ 447 µM)	120 to 122				57 (≈ 146 µM)	38.2	60.7	41.7	74.6	
Cc1ccc(NC(=O)CNC(=O)C(C)NS(=O)(=O)c2ccccc2)cc1 (stereo not drawn) [Compound 7e]	6330 (≈ 16900 µM)	30 (≈ 11.3 µg/mL)	0.05 (≈ 0.0188 µg/mL)			2090 (≈ 5560 µM)	3.5	0.3	4.1	0.3	28.8 (≈ 76.7 µM)	160 to 162	11.0	35	6.0 × 10^6 mm^3	194 (≈ 517 µM)	62.3	40.2	66.7	50.7	WBC ([8]; After treatment): 10.5 × 10^3 mm^3; HB ([8]; Before treatment): 14.1 g/dL; PCV ([8]; Before treatment): 36%; RBC ([8]; Before treatment): 6.85 × 10^6 mm^3; WBC ([8]; Before treatment): 12.2 × 10^3 mm^3; ability to inhibit parasitaemia compared to the control drug [10]: almost the same or better activity compared to the artemisinin; ALT ([11]; After): 22.0 µ/L; AST ([11]; After): 60.5 µ/L; Bilirubin ([11]; After): 0.2 mg/dL; Glucose ([11]; After): 5.0; T.P. ([11]; After): 4.5 g/dL; ALT ([11]; Before): 24.0 µ/L; AST ([11]; Before): 64.0 µ/L; Bilirubin ([11]; Before): 0.3 mg/dL; Glucose ([11]; Before): 5.8; T.P. ([11]; Before): 5.8 g/dL
